Here are results for 4 compounds from US12502386B2, “Nitrogen-containing heterocyclic compound and use thereof” (SHANGHAI SHIJIANG BIOTECHNOLOGY CO., LTD, priority 2022, dated 2025).

Experiment [1] concerns 786-O. In words: CellTiter-Glo cell viability, tumor cell line 786-O. It counts as cell-based. The following applies: Homo sapiens, 786-0, 72 h; clear cell renal cell adenocarcinoma cell; 3 days of culture; read-out: inhibitory effect on 786-O (IC50). The method, then:
(§1) Cell viability was detected using the Promega CellTiter-Glo kit, cell viability was determined by directly measuring intracellular ATP content. In the experiment, the IC50 value of the compounds prepared in the Examples of the present invention on various tumor cell lines was detected.
(§2) Each tumor cell was cultured in relevant medium. After cell passage, the gradient diluted compounds prepared in the Examples of the present invention was added. After 3 days of culture, the relevant IC50 (50% inhibiting concentration) was measured. The name, source and culture conditions of each tumor cell line were as follows:
Cell line 786-0 (ATCC, No. CRL-1932) was cultured in 10% fetal bovine serum-containing RPMI164B medium (+P/S).
(ATP-based viability assays read luminescence as a measure of living cells.)

The test system of experiment [2] is Con-NCI-H82 cell. In words: CellTiter-Glo cell viability, Con-NCI-H82 cell (empty-vector control). In kind it is cell-based, human. The conditions noted are these: Homo sapiens, NCI-H82, NCI-H82 transfected with empty virus vector (control), intracellular ATP, read-out: inhibitory effect on Con-NCI-H82 (IC50).
The subject of experiment [3] is D341 Med. Description: CellTiter-Glo cell viability, brain tumor cell line D341 Med. In kind it is cell-based. The following applies: Homo sapiens, 72 h, cerebellar medulloblastoma cell, 3 days of culture, read-out: inhibitory effect on D341 Med (IC50). Here is the method: (§3) Cell viability was detected using the Promega CellTiter-Glo kit, cell viability was determined by directly measuring intracellular ATP content. In the experiment, the IC50 value of the compounds prepared in the Examples of the present invention on various brain tumor cell lines was detected.
as §2
Cell line D341 Med (ATCC, No. HTB-187) was cultured in 20% fetal bovine serum-containing EMEM medium (+P/S).

Experiment [4] relates to GB-1. Description: CellTiter-Glo cell viability, tumor cell line GB-1. In kind it is cell-based. The following applies: GB-1, 72 h; human brain glioblastoma cell; 3 days of culture; read-out: inhibitory effect on GB-1 (IC50). Here is the method:
as §1, §2
Cell line GB-1 (JCRB, No. IFO50489) was cultured in 10% fetal bovine serum-containing DMEM medium (+P/S).
as §3

The subject of experiment [5] is CFPAC-1. Description: CellTiter-Glo cell viability, tumor cell line CFPAC-1. In kind it is cell-based. The conditions noted are these: CFPAC-1, 72 h; human pancreatic cancer cell; 3 days of culture; read-out: inhibitory effect on CFPAC-1 (IC50). Here is the method: as §1, §2
Cell line CFPAC-1 (ATCC, No. CRL-1918) was cultured in 10% fetal bovine serum-containing IMDM medium (+P/S).

Experiment [6] relates to G-401. In words: CellTiter-Glo cell viability, tumor cell line G-401. It counts as cell-based. The conditions noted are these: G-401, 72 h; human renal carcinoma Wilms cell; 3 days of culture; read-out: inhibitory effect on G-401 (IC50). Here is the method:
as §1, §2
Cell line G-401 (ATCC, No. CRL-1441) was cultured in 10% fetal bovine serum-containing McCoy's 5a medium (+P/S).

Experiment [7] deals with ov-NNMT NCI-H82 cell. In words: CellTiter-Glo cell viability, ov-NNMT NCI-H82 cell (NNMT overexpressed). The conditions noted are these: Homo sapiens, NCI-H82, NCI-H82 overexpressing NNMT protein, intracellular ATP, read-out: inhibitory effect on OV-NNMT NCI-H82 (IC50). In kind it is cell-based, human.
Experiment [8] has as its system SF-126. In words: CellTiter-Glo cell viability, tumor cell line SF-126. In kind it is cell-based. The conditions noted are these: SF-126, 72 h, read-out: inhibitory effect on SF-126 (IC50); human glioblastoma multiforme cell; 3 days of culture. The method, then:
as §1, §2
Cell line SF126 (JCRB, No. IFO50286) was cultured in 10% fetal bovine serum-containing EMEM medium (+P/S).
as §3

For experiment [9], the system named is NCI-H82. In words: CellTiter-Glo cell viability, tumor cell line NCI-H82. In kind it is cell-based. The following applies: NCI-H82, 72 h; human small cell lung cancer cell; 3 days of culture; read-out: inhibitory effect on NCI-H82 (IC50). Here is the method: as §1, §2
Cell line NCI-H82 (ATCC, No. HTB-175) was cultured in 10% fetal bovine serum-containing RPMI1640 medium (+P/S).

Experiment [10] concerns sh-DNMT1 NCI-H82 cell. Description: CellTiter-Glo cell viability, sh-DNMT1 NCI-H82 cell (DNMT1 knocked down). It counts as cell-based, human. The following applies: Homo sapiens, NCI-H82, NCI-H82 with DNMT1 knocked down by shRNA, intracellular ATP, read-out: inhibitory effect on sh-DNMT1 NCI-H82 (IC50).
The subject of experiment [11] is SW48. In words: CellTiter-Glo cell viability, tumor cell line SW48. The following applies: SW48, 72 h; human colon adenocarcinoma cell; 3 days of culture; read-out: inhibitory effect on SW48 (IC50). It counts as cell-based. The method, then: as §1, §2
Cell line SW48 (ATCC, No. CCL-231) was cultured in 10% fetal bovine serum-containing Leibovitz's L-15 medium (+P/S).

Experiment [12] relates to MDA-MB-453. In words: CellTiter-Glo cell viability, tumor cell line MDA-MB-453. It counts as cell-based. The conditions noted are these: Homo sapiens, MDA-MB-453, 72 h; breast cancer cell; 3 days of culture; read-out: inhibitory effect on MDA-MB-453 (IC50). The method, then:
as §1
(§4) Each tumor cell was cultured in relevant medium. After cell passage, the gradient diluted compounds prepared in the Examples of the present invention was added. After 3 days of culture, the relevant IC50 (50% inhibiting concentration) was measured. The name, source and culture conditions of each tumor cell line were as follows: […]

Experiment [13] relates to NB-1. Description: CellTiter-Glo cell viability, brain tumor cell line NB-1. It counts as cell-based. The following applies: Homo sapiens, NB1, 72 h; brain neuroblastoma cell; 3 days of culture; read-out: inhibitory effect on NB-1 (IC50). The method, then:
as §3, §4

Experiment [14] concerns Kelly. In words: CellTiter-Glo cell viability, brain tumor cell line Kelly. It counts as cell-based. The conditions noted are these: Homo sapiens, 72 h, brain neuroblastoma cell, 3 days of culture, read-out: inhibitory effect on Kelly (IC50). Here is the method: as §3, §2
Cell line Kelly (ECACC, No. 92110411) was cultured in 10% fetal bovine serum and 2 mM glutamine-containing RPMI1640 medium.

pIC50: −log10 of the molar value.

The pIC50 is the negative decadic logarithm of the IC50, by convention in mol/L. For `C1=C2c3cc4c(cc3CCN2C(C2CCCC2)c2c1ccc1c2OCO1)OCO4` (centres unmarked) [AB36423], the pIC50 in experiment [1] was 4.65; in [2], 5.73; in experiment [3], 5.81; in [4] it was 4.79; in experiment [5], 4.84; in [6], 5.63. Moreover, the pIC50 in experiment [7] is 5.29; in [8], < 4.52; in [9], 5.73; in experiment [10], 5.30; in experiment [11], 5.60; in [12], 5.78. The pIC50 is 5.53 in [13] and 5.51 in [14].
As to `[2H]C1c2c(ccc(OC)c2OCCC)C=C2c3cc4c(cc3CCN21)OCO4` (centres unmarked) [AB36437], the pIC50 is 4.70 in experiment [1]; 6.19 in experiment [2]; 5.67 in experiment [3]; 4.70 in experiment [4]; 4.84 in experiment [5]; 6.01 in experiment [6]. In addition, the pIC50 was 5.56 in [7]; 4.78 in experiment [8]; 6.19 in experiment [9]; 5.51 in experiment [10]; 5.59 in experiment [11]; 5.87 in experiment [12]. Moreover, the pIC50 in [13] is 5.59; in [14] it was 5.72.
On to `COc1ccc2c(c1OC)C(C1CCC1)N1CCc3cc4c(cc3C1=C2)OCO4` (centres unmarked) [AB36447], for which the pIC50 in [1] was < 4.52; in [2], 5.69; in experiment [3], 5.56; in experiment [4], 4.61; in [5] it was 4.70; in experiment [6], 5.57. Besides, the pIC50 in experiment [7] was 5.30; in experiment [8], < 4.52; in experiment [9], 5.69; in experiment [10], 5.15; in experiment [11], 5.71; in [12] it was 5.67. For the same compound, the pIC50 is 5.69 in experiment [13] and 5.70 in experiment [14].
Turning to `[2H]C([2H])([2H])Oc1c(OC)ccc2c1C(C1CCCC1)N1CCc3cc4c(cc3C1=C2)OCO4` (centres unmarked) [AB36501], the pIC50 in experiment [1] was 4.88; in [2] it was 6.01; in [3], 6.12; in [4], 4.87; in experiment [5] it was 5.01; in [6] it was 6.06. Further, the pIC50 is 5.36 in experiment [7]; 4.81 in experiment [8]; 6.01 in [9]; 5.29 in [10]; 5.94 in [11]; 5.88 in experiment [12]. The pIC50 in experiment [13] was 5.69; in experiment [14], 5.86.
